Measured values as given in PubChem BioAssay AID248 (DTP/NCI, 2004).
Several values for one entry are separate records, joined by “and”; a condition that tells them apart may be missing. Identical values can stand only once. Toxic doses and inconclusive results are not listed. No stated cut-off is given here; in the data, active means T/C of 150% or more; inactive means T/C below 125%.

System: L1210 leukemia ip in BDF1 mice, survival T/C
Assay: NCI In Vivo Anticancer Drug Screen. Data for tumor model L1210 Leukemia (intraperitoneal) in B6D2F1 (BDF1) mice
Conditions: endpoint: mean survival time, higher = longer survival
Method in brief: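 Read-out is survival time, reported as the treated-group measurement over the vehicle-control measurement.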

[1] = dose: 50.0 mg/kg/injection, schedule: Q01DX009 (ip), vehicle: saline
[2] = dose: 100.0 mg/kg/injection, schedule: Q04DX003 (ip), vehicle: saline

Measured: T/C

Nc1c(-c2ccccc2)nnn1-c1ccc2ccccc2c1
inactive: dose: 100.0 mg/kg/injection, schedule: Q04DX002 (ip), vehicle: gum acacia 101 % of control | dose: 200.0 mg/kg/injection, schedule: Q04DX002 (ip), vehicle: gum acacia 96 % of control | dose: 400.0 mg/kg/injection, schedule: Q04DX002 (ip), vehicle: gum acacia 96 % of control

Cc1c(C/C(=N/O)C(=O)O)[nH]c(=S)[nH]c1=O
inactive: dose: 100.0 mg/kg/injection, schedule: Q04DX003 (ip), vehicle: saline with Tween-80 103 % of control | dose: 200.0 mg/kg/injection, schedule: Q04DX003 (ip), vehicle: saline with Tween-80 96 % of control | dose: 400.0 mg/kg/injection, schedule: Q04DX003 (ip), vehicle: saline with Tween-80 102 % of control

OCC(Oc1ccccc1)C(O)C(O)C(CO)Oc1ccccc1 (stereo not drawn)
inactive: dose: 100.0 mg/kg/injection, schedule: Q01DX009 (ip), vehicle: Klucel (hydroxypropylcellulose) (HPC) 103 % of control | dose: 200.0 mg/kg/injection, schedule: Q01DX009 (ip), vehicle: Klucel (hydroxypropylcellulose) (HPC) 103 % of control | dose: 400.0 mg/kg/injection, schedule: Q01DX009 (ip), vehicle: Klucel (hydroxypropylcellulose) (HPC) 95 % of control

N#CNN=Nc1cc(Cl)c(Cl)c(Cl)c1
inactive: dose: 12.0 mg/kg/injection, schedule: Q01DX009 (ip), vehicle: saline 101 % of control | dose: 25.0 mg/kg/injection, schedule: Q01DX009 (ip), vehicle: saline 109 % of control | dose: 25.0 mg/kg/injection, schedule: Q04DX003 (ip), vehicle: saline 105 % of control | [1] 97 % of control and 104 % of control | dose: 50.0 mg/kg/injection, schedule: Q04DX003 (ip), vehicle: saline 98 % of control | [2] 91 % of control

O=C(CCl)c1ccc(O)c(O)c1
inactive: dose: 6.25 mg/kg/injection, schedule: Q01DX009 (ip), vehicle: saline 94 % of control | dose: 12.5 mg/kg/injection, schedule: Q01DX009 (ip), vehicle: saline 105 % of control | dose: 33.0 mg/kg/injection, schedule: Q01DX001 (ip), vehicle: other 105 % of control | dose: 50.0 mg/kg/injection, schedule: Q01DX001 (ip), vehicle: other 108 % of control | dose: 75.0 mg/kg/injection, schedule: Q01DX001 (ip), vehicle: other 109 % of control | dose: 112.0 mg/kg/injection, schedule: Q01DX001 (ip), vehicle: other 108 % of control

CCOC(=O)c1cnc2ccccn2c1=O
inactive: [1] 96 % of control | dose: 100.0 mg/kg/injection, schedule: Q01DX001 (ip), vehicle: saline with Tween-80 92 % of control | dose: 100.0 mg/kg/injection, schedule: Q01DX009 (ip), vehicle: saline 93 % of control | [2] 92 % of control | dose: 200.0 mg/kg/injection, schedule: Q01DX001 (ip), vehicle: saline with Tween-80 94 % of control | dose: 200.0 mg/kg/injection, schedule: Q01DX009 (ip), vehicle: saline 101 % of control | dose: 200.0 mg/kg/injection, schedule: Q04DX003 (ip), vehicle: saline 94 % of control
